PubChem BioAssay (NCI)
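Five concentrations, 48 hours, 96-well plates. Definition used: TGI = concentration required for complete inhibition of growth.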

Columns and labels:
Assay in all cases: NCI tumour cell line growth inhibition, 48 h
[1] = system: 786-0 renal
[2] = system: HOP-62 NSCLC
[3] = system: SR leukemia
[4] = system: SK-MEL-5 melanoma
[5] = system: SF-268 CNS
[6] = system: NCI-H522 lung
[7] = system: MDA-MB-435
[8] = system: HOP-92 NSCLC
[9] = system: NCI/ADR-RES ovarian
[10] = system: COLO 205 colon

Question: How did the TGI [1] turn out when `Cc1nc2c(n1-c1ccccc1)C(=O)c1ccccc1C2=O` was run?
Answer: Its TGI is > 100 µM.

Question: And the TGI [2]?
Answer: Its TGI is > 100 µM.

Question: What about the TGI [3] of the same compound?
Answer: Its TGI is > 100 µM.

Question: What about the TGI [4] of the same compound?
Answer: Its TGI is > 100 µM.

Question: What about the TGI [5] of the same compound?
Answer: The TGI was > 100 µM.

Question: What about the TGI [6] of the same compound?
Answer: The TGI was 71.8 µM.

Question: Which TGI [1] does the source give for `NC(=S)NNC(=S)NC(=O)c1ccco1` here?
Answer: Its TGI is > 10 µM.

Question: And the TGI [7]?
Answer: Its TGI is > 10 µM.

Question: What about the TGI [2] of the same compound?
Answer: Its TGI is > 10 µM.

Question: What about the TGI [8] of the same compound?
Answer: The TGI was > 10 µM.

Question: And the TGI [9]?
Answer: The TGI was > 10 µM.

Question: And the TGI [3]?
Answer: The TGI was > 10 µM.

Question: What about the TGI [4] of the same compound?
Answer: Its TGI is > 10 µM.

Question: And the TGI [5]?
Answer: The TGI was > 10 µM.

Question: `COc1cc2c(cc1OC)C(=O)/C(=C/c1ccc(O)cc1)CC2` was tested. Which TGI [1] did it give?
Answer: Its TGI is > 10 µM.

Question: What about the TGI [7] of the same compound?
Answer: The TGI was > 10 µM.

Question: What about the TGI [2] of the same compound?
Answer: The TGI was > 10 µM.

Question: And the TGI [8]?
Answer: Its TGI is > 10 µM.

Question: And the TGI [9]?
Answer: The TGI was > 10 µM.

Question: And the TGI [3]?
Answer: Its TGI is > 10 µM.

Question: What about the TGI [4] of the same compound?
Answer: Its TGI is > 10 µM.

Question: What about the TGI [5] of the same compound?
Answer: The TGI was > 10 µM.

Question: And the TGI [10]?
Answer: Its TGI is > 10 µM.

Question: How did the TGI [1] turn out when `CC(=Nc1cc(Cl)cc(Cl)c1)c1ccncc1` was run?
Answer: Its TGI is > 100 µM.

Question: And the TGI [7]?
Answer: Its TGI is > 100 µM.

Question: And the TGI [2]?
Answer: Its TGI is > 100 µM.

Question: What about the TGI [8] of the same compound?
Answer: Its TGI is > 100 µM.

Question: What about the TGI [9] of the same compound?
Answer: Its TGI is > 100 µM.

Question: And the TGI [4]?
Answer: Its TGI is > 100 µM.

Question: And the TGI [5]?
Answer: Its TGI is > 100 µM.

Question: And the TGI [6]?
Answer: Its TGI is > 100 µM.

Question: What about the TGI [10] of the same compound?
Answer: The TGI was > 100 µM.

Question: Which results are given for `CCOC(=O)CCC(NC(=O)OCc1ccccc1)C(=O)NC(CCC(=O)OCC)C(=O)NC(CCC(=O)OCC)C(=O)NNC(=O)OC(C)(C)C` (configuration not stated)?
Answer: TGI [1]: > 100 µM; TGI [2]: > 100 µM; TGI [8]: > 100 µM; TGI [3]: > 100 µM; TGI [4]: > 100 µM; TGI [10]: > 100 µM

Question: What does the source list for `O=c1c2cc(Br)ccc2ncn1COCc1ccccc1`?
Answer: TGI [1]: > 100 µM; TGI [7]: > 100 µM; TGI [8]: > 100 µM; TGI [9]: > 1 µM; TGI [3]: > 100 µM; TGI [4]: > 100 µM; TGI [10]: > 100 µM

Question: For `C[C@]12CCC(=O)C=C1CC[C@@H]1[C@@H]2[C@@H](O)C[C@@]2(C)[C@H]1CC[C@]2(O)C(=O)COC(=O)CCC1CCCC1`, which TGI [1] is on record?
Answer: Its TGI is > 100 µM.

Question: What about the TGI [8] of the same compound?
Answer: Its TGI is > 100 µM.

Question: What about the TGI [3] of the same compound?
Answer: Its TGI is > 100 µM.

Question: And the TGI [4]?
Answer: The TGI was > 100 µM.

Question: What about the TGI [5] of the same compound?
Answer: Its TGI is > 100 µM.

Question: And the TGI [6]?
Answer: Its TGI is > 100 µM.

Question: And the TGI [10]?
Answer: The TGI was > 100 µM.

Question: For `Cc1cn(CCOCCOC(=O)NC(CCCNC(N)=O)C(=O)O)c(=O)[nH]c1=O` (configuration not stated), which TGI [1] is on record?
Answer: Its TGI is > 100 µM.

Question: What about the TGI [7] of the same compound?
Answer: Its TGI is > 100 µM.

Question: What about the TGI [2] of the same compound?
Answer: The TGI was > 100 µM.

Question: What about the TGI [8] of the same compound?
Answer: Its TGI is > 100 µM.

Question: And the TGI [9]?
Answer: Its TGI is > 100 µM.

Question: What about the TGI [3] of the same compound?
Answer: Its TGI is > 100 µM.

Question: What about the TGI [5] of the same compound?
Answer: The TGI was > 100 µM.

Question: What about the TGI [10] of the same compound?
Answer: The TGI was > 100 µM.

Question: How did the TGI [1] turn out when `N#Cc1c(N2CCN(c3ccc([N+](=O)[O-])cc3)CC2)[n+](=O)c2ccc(-c3ccc([N+](=O)[O-])cc3)cc2n1[O-]` was run?
Answer: The TGI was > 100 µM.

Question: What about the TGI [7] of the same compound?
Answer: The TGI was > 100 µM.

Question: What about the TGI [2] of the same compound?
Answer: The TGI was 23.8 µM.

Question: And the TGI [8]?
Answer: Its TGI is > 83.9 µM.

Question: What about the TGI [9] of the same compound?
Answer: The TGI was > 100 µM.

Question: And the TGI [4]?
Answer: The TGI was 17.5 µM.

Question: And the TGI [5]?
Answer: The TGI was > 100 µM.

Question: And the TGI [6]?
Answer: The TGI was > 100 µM.

Question: And the TGI [10]?
Answer: Its TGI is > 100 µM.

Question: For `N#C/C(C(=O)Nc1ccccc1)=C(/N)N1CCCCC1`, which TGI [1] is on record?
Answer: The TGI was > 100 µM.

Question: What about the TGI [7] of the same compound?
Answer: Its TGI is > 100 µM.

Question: What about the TGI [2] of the same compound?
Answer: The TGI was > 100 µM.

Question: What about the TGI [8] of the same compound?
Answer: The TGI was > 100 µM.

Question: What about the TGI [9] of the same compound?
Answer: The TGI was > 100 µM.

Question: What about the TGI [3] of the same compound?
Answer: Its TGI is > 100 µM.

Question: What about the TGI [4] of the same compound?
Answer: Its TGI is > 100 µM.

Question: What about the TGI [10] of the same compound?
Answer: The TGI was > 100 µM.
